Data set [1] concerns human malignant melanoma cell line (A-375). The data set is described as follows: Cytotoxicity in A-375 cells, CellTiter-Glo ATP viability, 48-h incubation. Type of data set: cell-based. The settings on record: for CC50 / cytotoxicity at 50 µM: Homo sapiens, 48 h; for CC50: A-375, 48 h, cytotoxic concentration that caused death of 50% cells; for CC50 / cytotoxicity at 50 µM / Cytotoxic activity in A-375 cells (in words): A-375 cells; for cytotoxicity at 50 µM: read-out: Primary Test Result (Cytotoxicity % at 50 µM in A-375 Cells); for Cytotoxic activity in A-375 cells (in words): SAR discussion; for Selectivity Index: ratio of CC50 in Hs27 fibroblasts over CC50 in A-375 melanoma cells. The method, then: (§1) Human malignant melanoma cell line A-375 was kindly provided by Prof. Marikki Laiho (University of Helsinki, Finland) and Hs27 human skin fibroblast cell line was kindly provided by Dr. Carmen Escobedo-Lucea (University of Helsinki, Finland). The cells were maintained in Glutamax high glucose Dulbecco’s Modified Eagle’s Medium (DMEM, Gibco), supplemented with 10% fetal bovine serum (FBS, Gibco), at 37 °C, 5% CO2.
(§2) The cells were seeded to white frame and clear bottom 96-well plates (Perkin Elmer) at the density of 10,000 cells/well for A-375 cell line and 7500 cells/well for Hs27 cell line. The cells were grown at 37 °C, 5% CO2 until they reached 70–80% confluence (approximately 24 h). Stock solutions of test compounds and a positive control (camptothecin, Sigma-Aldrich, Saint Louis, MO, USA) were prepared in DMSO and diluted into assay medium (growth medium with 5% FBS) to the final concentration. Final DMSO concentration was 0.5% in all samples. The culture medium was removed from the plate and compounds added, 200 µL/well. After 48-h incubation, the amount of ATP, which is directly proportional to the number of cells present in culture, was quantified using CellTiter-Glo® Luminescent Cell Viability kit (Promega, Madison, WI, USA), according to manufacturer’s instructions.
(§3) Origin Graphing and Analysis, version 8.6 (OriginLab, Northampton, MA, USA) was used for determination of CC50 values. The cancer cell selectivity index (SI) was calculated as a ratio of CC50 values between Hs27 fibroblasts and A-375 melanoma cells.

Data set [2] is described as follows: Cytotoxicity in Hs27 cells, CellTiter-Glo ATP viability, 48-h incubation. It is filed as cell-based. The settings on record: human, Hs27 normal skin fibroblast cells, Hs27 normal fibroblasts. The method, then:
as §1, §2, §3

The subject of data set [3] is human cervical carcinoma HeLa cells. Also noted: method as in doi:10.1016/j.tetlet.2010.07.016. The settings on record: cited from earlier work.
The test system of data set [4] is A2780S, A2780CP (SCP5), A549, MCF7, U251MG cells and NIH3T3. Also noted: method as in PMID 26711149. The settings on record: cited from earlier work.

For the compound `COc1c(Br)cc(C/C(=N\O)C(=O)NCc2cccnc2)cc1Br` [Compound 39, (E)-3-(3,5-Dibromo-4-methoxyphenyl)-2-(hydroxyimino)-N-(pyridin-3-ylmethyl)propanamide], in data set [1], the CC50 was 22.1 µM, the cytotoxicity at 50 µM is 93.2% and the “Cytotoxic activity in A-375 cells (in words)” value (“Cytotoxic activity” below) is “retained the activity”.
In the case of `COc1c(Br)cc(C/C(=N\O)C(=O)NCc2ccc(Cl)c(Cl)c2)cc1Br` [Compound 31, (E)-3-(3,5-Dibromo-4-methoxyphenyl)-N-(3,4-dichlorobenzyl)-2-(hydroxyimino)propanamide], the 50% cytotoxic concentration (CC50) at 48 h in data set [2] amounted to 22.3 µM. For the same compound, in data set [1], it took 12.4 µM to reach half-maximal cytotoxicity (CC50), the cytotoxicity at 50 µM came to 99.7% and the “Selectivity Index” value was determined as 1.8.
Regarding `COc1c(Br)cc(C/C(=N\O)C(=O)Nc2ccc(Cl)c(Cl)c2)cc1Br` [Compound 30, (E)-3-(3,5-Dibromo-4-methoxyphenyl)-N-(3,4-dichlorophenyl)-2-(hydroxyimino)propanamide], the melting point is 198 °C (dec.). In addition, in data set [2], the half-maximal cytotoxic concentration (CC50) at 48 h worked out at 15.2 µM. In addition, in data set [1], the CC50 was found to be 13.1 µM, the cytotoxicity at 50 µM stood at 101% and the “Selectivity Index” value amounted to 1.2.
For `COc1c(Br)cc(C/C(=N\O)C(=O)Nc2ccccn2)cc1Br` [Compound 36, (E)-3-(3,5-Dibromo-4-methoxyphenyl)-2-(hydroxyimino)-N-(pyridin-2-yl)propanamide] the same measures were 192 to 196 °C (dec.), 19.4 µM, 4.7 µM, 84.7% and 4.1.
As to `COc1ccc(C/C(=N\O)C(=O)Nc2ccc(OC)c(Br)c2)cc1Br` [Compound 41, (E)-N,3-Bis(3-bromo-4-methoxyphenyl)-2-(hydroxyimino)propanamide], in data set [1], the CC50 worked out at 19.8 µM, the cytotoxicity at 50 µM came out at 99.2% and the “Cytotoxic activity” value is given as “showed activity”.
Regarding `COc1ccc(C/C(=N\O)C(=O)Nc2ccccn2)cc1Br` [Compound 42, (E)-3-(3-Bromo-4-methoxyphenyl)-2-(hydroxyimino)-N-(pyridin-2-yl)propanamide], the melting point was 214 to 217 °C (dec.). Besides, in data set [1], the cytotoxicity at 50 µM stood at 2.7% and the “Cytotoxic activity” value is “inactive”.
As to `COc1c(Br)cc(C/C(=N\O)C(=O)Nc2ccc(N(C)C)cc2)cc1Br` [Compound 40, (E)-3-(3,5-Dibromo-4-methoxyphenyl)-N-[4-(dimethylamino)phenyl]-2-(hydroxyimino)propanamide], in data set [1], the CC50 stood at 27.8 µM and the cytotoxicity at 50 µM was 99.1%.
Regarding `CC[C@@]1(O)C(=O)OCc2c1cc1n(c2=O)Cc2cc3ccccc3nc2-1` [Camptothecin, reference compound], the CC50 at 48 h in data set [2] was 5.54 µM. Moreover, in data set [1], half-maximal cytotoxicity (CC50) was put at 0.06 µM, the cytotoxicity at 50 µM was determined as 94.7% and the “Selectivity Index” value is on record as 92.3.
For the compound `COc1ccc(C/C(=N\O)C(=O)NCc2ccc(Cl)c(Cl)c2)cc1` [Compound 43, (E)-N-(3,4-Dichlorobenzyl)-2-(hydroxyimino)-3-(4-methoxyphenyl)propanamide], the cytotoxicity at 50 µM in data set [1] amounted to 21.5%.
Compound `COc1ccc(NC(=O)/C(Cc2cc(Br)c(OC)c(Br)c2)=N/O)cc1Cl` [Compound 33, (E)-N-(3-Chloro-4-methoxyphenyl)-3-(3,5-dibromo-4-methoxyphenyl)-2-(hydroxyimino)propanamide] gave a CC50 at 48 h in data set [2] of 26.4 µM. Also, in data set [1], the CC50 was 13.5 µM, the cytotoxicity at 50 µM stood at 98.9% and the “Selectivity Index” value was 2.0.
Taken in the same sequence, the figures for `COc1c(Br)cc(C/C(=N\O)C(=O)NCCc2cc(Br)c(OCCCN(C)C)c(Br)c2)cc1Br` [Compound 29, (E)-N-[3,5-Dibromo-4-[3-(dimethylamino)propoxy]phenethyl]-3-(3,5-dibromo-4-methoxyphenyl)-2-(hydroxyimino)propanamide] were 4.5 µM, 6.3 µM, 99.9% and 0.7.
With `COc1c(Br)cc(C/C(=N\O)C(=O)NCCc2cc(Br)c(OCCCN)c(Br)c2)cc1Br` [Compound 3], the “Cytotoxic effect on HeLa cells (in words)” value in data set [3] is given as “comparably strong cytotoxic effect”.
For the compound `COc1c(Br)cc(C/C(=N\O)C(=O)Nc2cccnc2)cc1Br` [Compound 37, (E)-3-(3,5-Dibromo-4-methoxyphenyl)-2-(hydroxyimino)-N-(pyridin-3-yl)propanamide], in data set [1], the CC50 stood at 26.4 µM and the cytotoxicity at 50 µM was 83.5%.
For the compound `COc1ccc(C/C(=N\O)C(=O)Nc2ccccn2)cc1Cl` [Compound 45, (E)-3-(3-Chloro-4-methoxyphenyl)-2-(hydroxyimino)-N-(pyridin-2-yl)propanamide], in data set [1], the cytotoxicity at 50 µM was 4% and the “Cytotoxic activity” value is “inactive”.
`COc1ccc(NC(=O)/C(Cc2cc(Br)c(OC)c(Br)c2)=N/O)cc1Br` [Compound 34, (E)-N-(3-Bromo-4-methoxyphenyl)-3-(3,5-dibromo-4-methoxyphenyl)-2-(hydroxyimino)propanamide] displayed a CC50 at 48 h in data set [2] of 22.5 µM. Moreover, in data set [1], half-maximal cytotoxicity (CC50) was put at 16.2 µM, the cytotoxicity at 50 µM was found to be 100% and the “Selectivity Index” value came to 1.4.
Regarding `COc1ccc(C/C(=N\O)C(=O)Nc2ccccn2)cc1` [Compound 44, (E)-2-(Hydroxyimino)-3-(4-methoxyphenyl)-N-(pyridin-2-yl)propanamide], in data set [1], the cytotoxicity at 50 µM was 0.4% and the “Cytotoxic activity” value was “inactive”.
With `COc1c(Br)cc(C/C(=N\O)C(=O)Nc2cc(Cl)cc(Cl)c2)cc1Br` [Compound 35, (E)-3-(3,5-Dibromo-4-methxyphenyl)-N-(3,5-dichlorophenyl)-2-(hydroxyimino)propanamide], in data set [2], half-maximal cytotoxicity (CC50 at 48 h) was put at 12.2 µM. Also, in data set [1], it took 9.6 µM to reach half-maximal cytotoxicity (CC50), the cytotoxicity at 50 µM came out at 101% and the “Selectivity Index” value was 1.3.
Take `COc1c(Br)cc(C/C(=N\O)C(=O)Nc2ccncc2)cc1Br` [Compound 38, (E)-3-(3,5-Dibromo-4-methoxyphenyl)2-(hydroxyimino)-N-(pyridin-4-yl)propanamide]: the cytotoxicity at 50 µM in data set [1] was determined as 71.1%.
Turning to `COc1c(Br)cc(C/C(=N\O)C(=O)NCCc2cc(Br)c(O)c(Br)c2)cc1Br` [Compound 4], the “Cytotoxic effect on HeLa cells (in words)” value in data set [3] is recorded as “comparably strong cytotoxic effect”.
Take `CNCCCOc1c(Br)cc(CCNC(=O)/C(Cc2cc(Br)c(OC)c(Br)c2)=N/O)cc1Br` [Compound 1, (E)-N-[3,5-Dibromo-4-[3-(methylamino)propoxy]phenethyl]-3-(3,5-dibromo-4-methoxyphenyl)-2-(hydroxyimino)propenamide]: the “Cytotoxicity against various cancer cell lines and non-cancer NIH3T3 (in words)” value in data set [4] is on record as “cytotoxic”. The CC50 at 48 h in data set [2] was determined as 5.2 µM. The “Selectivity between A-375 and Hs27 (in words)” value in data set [1] (A-375 vs Hs27) was “no selectivity”. Besides, in data set [1], the CC50 is 4.3 µM, the cytotoxicity at 50 µM is 97.9% and the “Selectivity Index” value is on record as 1.2.
For `COc1c(Br)cc(C/C(=N\O)C(=O)Nc2ccc(Cl)c(C(F)(F)F)c2)cc1Br` [Compound 32, (E)-N-[4-Chloro-3-(trifluoromethyl)phenyl]-3-(3,5-dibromo-4-methoxyphenyl)-2-(hydroxyimino) propanamide], it took 12 µM to reach half-maximal cytotoxicity in data set [2] (CC50 at 48 h). In data set [1], the CC50 stood at 10.3 µM, the cytotoxicity at 50 µM is 99.8% and the “Selectivity Index” value is listed as 1.2.

The record behind these values is publication PMC6316490, “Synthesis and Antiproliferative Activity of Marine Bromotyrosine Purpurealidin I and Its Derivatives” (Marine Drugs, 2018).
